One data set has as its system motor neurons. As to the kind of experiment: Cholesterol content of pure motor neuron cultures (Amplex Red Cholesterol Assay). The data set is classed as cell-based, rat. The conditions noted are these: after 30 minutes of treatment. On the procedure: Two hundred thousand motor neurons were plated in wells of a 96 well dish and after 24 hrs. treated with βMCD or vehicle. Thirty minutes later cholesterol content was determined using the Amplex® Red Cholesterol Assay kit (Molecular Probes) according to the manufacturers instructions. All determinations were made in quintuplicate and normalized to protein content (determined using Protein Assay kit (Bio-Rad)).
Finally to begin to determine the biological relevance of the lipid raft signaling complex, we asked if their disruption with cholesterol depleting agents would affect the capacity of BDNF to confer excitotoxic sensitivity upon motor neurons. Pure motor neurons were grown in the presence of CT-1 but in the absence of BDNF for 24 hours at which point the cholesterol depleting agent, β-methylcyclodextin (βMCD) or vehicle was added to the cultures. Thirty minutes later, BDNF or vehicle was added to the culture and 3 hours later the excitoticity assay was performed (FIG. 6b). We determined the amount of cholesterol in our pure motor neuron cultures after 30 minutes of βMCD treatment and found an ˜25% reduction in comparison with vehicle treatment (βMCD v. vehicle; 404±31 μg/μg protein versus 550±16 μg/μg protein, n=5 samples, t-test, p<0.001). […]

In data set [1] the test system is pure motor neurons grown in CT-1. As to the kind of experiment: BDNF-conferred excitotoxic sensitivity of pure motor neurons after cholesterol depletion. The data set is classed as cell-based. The conditions noted are these: for excitotoxic cell death: acute BMCD or vehicle followed by BDNF or vehicle, then kainate. The method, then:
Finally to begin to determine the biological relevance of the lipid raft signaling complex, we asked if their disruption with cholesterol depleting agents would affect the capacity of BDNF to confer excitotoxic sensitivity upon motor neurons. Pure motor neurons were grown in the presence of CT-1 but in the absence of BDNF for 24 hours at which point the cholesterol depleting agent, β-methylcyclodextin (βMCD) or vehicle was added to the cultures. Thirty minutes later, BDNF or vehicle was added to the culture and 3 hours later the excitoticity assay was performed (FIG. 6b). We determined the amount of cholesterol in our pure motor neuron cultures after 30 minutes of βMCD treatment and found an ˜25% reduction in comparison with vehicle treatment (βMCD v. vehicle; 404±31 μg/μg protein versus 550±16 μg/μg protein, n=5 samples, t-test, p<0.001). In terms of cell death, a statistically significant difference between experimental groups was identified by ANOVA (F(5,42)=32.797; P<0.001) and a post hoc analysis (Scheffé with level of significance set at P<0.05) indicated excitotoxic death only occurred in the (+)BDNF/(−)βMCD treatment group (# of motor neurons exposed to vehicle or kainate; 57±7 versus 40±4).

The test system of another data set is ALS patients. To be noted: intrathecal 25 μg/day or 150 μg/day versus vehicle, 18 months; cited from earlier work.

Results on two molecules are retold here after patent US20070037833A1, “Compositions and methods for inhibiting neurodegeneration” (priority 2005, published 2007).

As to β-methylcyclodextin [βMCD], the “reduction of cholesterol in comparison with vehicle” value in the data set with motor neurons was roughly 25%. For the same molecule, the “# of motor neurons” value is on record as 51±5 in data set [1] ((+)BDNF/(+)βMCD group, exposed to kainate); 58±4 in data set [1] ((+)BDNF/(+)βMCD group, exposed to vehicle); 60±5 in data set [1] ((−)BDNF/(+)βMCD group, exposed to kainate); 60±3 in data set [1] ((−)BDNF/(+)βMCD group, exposed to vehicle). For the same molecule, the “toxicity to motor neurons” value in data set [1] (BMCD alone) is recorded as “non-toxic”. Further, the excitotoxic cell death entry in data set [1] is “did not occur”.

B1: BDNF: brain-derived neurotrophic factor, activates the receptor tyrosine kinase TrkB (protein, UniProt P23560 19-247, looked up)
Neurotrophic factor BDNF …: APMKEANIRGQGGLAYPGVRTHGTLESVNGPKAGSRGLTSLADTFEHVIEELLDEDQKVRPNEENNKDADLYTSRVMLSSQVPLEPPLLFLLEEYKNYLDAANMSMRVRRHSDPARRGELSVCDSISEWVTAADKKTAVDMSGGTVTVLEKVPVSKGQLKQYFYETKCNPMGYTKEGCRGIDKRHWNSQCRTTQSYVRALTMDSKKRIGWRFIRIDTSCVCTLTIKRGR
As to B1, the “survival rate (survival free of ventilatory support)” value with ALS patients is reported as “lower than in the placebo group”. Further, the “# of motor neurons” value is 40±4 in data set [1] ((+)BDNF/(−)βMCD group, exposed to kainate) and 57±7 in data set [1] ((+)BDNF/(−)βMCD group, exposed to vehicle). The excitotoxic cell death result in data set [1] is reported as “Excitotoxic cell death occurred”.
